In patent US20120073988A1, “Sensor for Measurement of Hydrogen Sulfide” (priority 2004, published 2012):

Assays:
[1] = test system: enzyme in the blood vessels that is responsible for H2S production (rat aorta homogenate, VSMC, intact tail artery); assay: Real-time H2S production in rat vascular samples supplied with L-cysteine and PLP; assay type: biochemical; conditions: added after L-cysteine and PLP; FIG. 6
Text: In general, the following biological samples are bathed in the potassium phosphate buffer (PBS) described above. The specific procedures are found in Doeller, J. E., Isbell, T. S., Benavides, G., Koenitzer, J., Patel, H., Patel, P. P., Lancaster, J. R. Jr., Darley-Usmar, V. M., and Kraus, D. W.; Polarographic measurement of hydrogen sulfide production and consumption by mammalian tissues; Anal. Biochem.; (2005) 341: 40-51, the contents of which are incorporated by reference herein.
FIG. 6 illustrates measurement of real-time H2S production in rat aorta homogenate (Aorta homogenate), cultured rat vascular smooth muscle cells (VSMC) and living rat tail artery (Intact Tail Artery). After supplying each of the samples with the amino acid L-cysteine and the vitamin pyridoxal […] (PLP), both substrate and cofactor respectively, for the enzyme in the blood vessels that is responsible for H2S production, a rise in solution H2S concentration is observed.

[2] = H2S→H++HS−; HS−→S2−+H+; cited from earlier work
[3] = test system: mitochondria isolated from marine mussel gills; assay: O2 consumption of a mitochondria suspension isolated from mussel gills in a closed chamber; set-up: species or system ribbed mussel Geukensia demissa; conditions: injections of 12.5 μM sulfide, FIG. 5A
Text: The cellular organelle responsible for O2 consumption in biological cells is the mitochondrion. […] Such rapid kinetic events could not be adequately followed with standard colorimetric methods for H2S determination.
Mitochondria were isolated using the isolation procedure referenced in Parrino, V., D. W. Kraus and J. E. Doeller; ATP production from the oxidation of sulfide in gill mitochondria of the ribbed mussel Geukensia demissa; J. Exp. Biol.; (2000) 203:2209-2218, the contents of which are incorporated by reference herein. The mitochondria were suspended in an aqueous salt- and sucrose-containing buffer described in the Parrino reference.
In FIG. 5A two traces show the real-time concentrations of H2S and O2 in a closed chamber containing a mitochondria suspension isolated from mussel gills. The lower trace is H2S concentration and the upper trace is O2 concentration from a different sensor. […] As the chamber O2 is exhausted the sulfide is consumed much more slowly. In FIG. 5B the derivatives (H2S as lower trace and O2 as upper trace) of the traces in FIG. 5A are shown.

isolated rat aorta = assay: Vessel tension organ bath with isolated rat aorta segments; conditions: aorta pre-contracted with 100 nM phenylephrine; FIG. 7
Description: Individual segments, 4 mm long and 1.5 mm in diameter, are tethered between the bath floor and a sensitive force transducer above the bath in order to measure any vasorelaxation as a decrease in tension. An electrochemical H2S sensor (PHSS) is also immersed in the bath to simultaneously report the H2S concentration. The aorta vessels are first contracted by adding 100 nM phenylephrine, PE, to the bath to stimulate physiological vessel tension. […] Measurement of such an acute response of blood vessels to H2S concentration is only possible with the hydrogen sulfide detection apparatus comprising the PHSS.

## N#CC[C@H](N)C(=O)O [BCA, beta-cyanoalanine]
[1]
  effect on H2S production: limit any further H2S production

## S [H2S, Hydrogen sulfide]
[2]
  pKa: 6.88

## S [HS^−]
[2]
  pKa: 14.15

## [Na+].[Na+].[S-2] [Na2S]
[3]
  effect on O2 consumption: stimulate O2 consumption
Isolated rat aorta
  vessel tension (vasorelaxation): immediate vasorelaxation event
